Laboratory results: PMC11596355, “Virtual Screening Approaches to Identify Promising Multitarget-Directed Ligands for the Treatment of Autism Spectrum Disorder” (Molecules, 2024)

Experiments:
human D2sR (D2shortR) = target: T1, human D2sR (D2shortR) (Homo sapiens, UniProt P14416); assay: [3H]spiperone displacement, CHO-K1 membranes; type: binding; conditions: read-out: D2sR pKi ± SEM ^b (converted)
T1 construct: gene DRD2; full-length short isoform stably expressed in CHO-K1 cells, membrane fraction
T1 sequence (P14416 1-414 isoform P14416-2): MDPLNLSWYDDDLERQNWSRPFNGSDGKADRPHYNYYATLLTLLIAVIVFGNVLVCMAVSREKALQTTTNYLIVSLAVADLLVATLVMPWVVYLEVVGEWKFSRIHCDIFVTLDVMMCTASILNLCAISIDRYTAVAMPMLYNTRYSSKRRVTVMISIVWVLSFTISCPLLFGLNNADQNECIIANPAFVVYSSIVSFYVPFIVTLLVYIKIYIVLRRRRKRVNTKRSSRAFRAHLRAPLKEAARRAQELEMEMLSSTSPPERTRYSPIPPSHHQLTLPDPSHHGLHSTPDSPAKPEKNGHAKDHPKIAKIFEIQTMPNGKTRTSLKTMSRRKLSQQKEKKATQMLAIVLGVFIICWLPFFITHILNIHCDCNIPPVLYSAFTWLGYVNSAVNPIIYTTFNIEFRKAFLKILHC
Description: [3H]spiperone displacement, CHO-K1 membranes on human D2sR (D2shortR)

human D3R = target: T2, human D3R (Homo sapiens, UniProt P35462); assay: [3H]spiperone displacement, CHO-K1 membranes; type: binding; conditions: read-out: D3R pKi ± SEM ^b (converted)
T2 construct: gene DRD3; full-length, stably expressed in CHO-K1 cells, membrane fraction
T2 sequence (P35462 whole entry): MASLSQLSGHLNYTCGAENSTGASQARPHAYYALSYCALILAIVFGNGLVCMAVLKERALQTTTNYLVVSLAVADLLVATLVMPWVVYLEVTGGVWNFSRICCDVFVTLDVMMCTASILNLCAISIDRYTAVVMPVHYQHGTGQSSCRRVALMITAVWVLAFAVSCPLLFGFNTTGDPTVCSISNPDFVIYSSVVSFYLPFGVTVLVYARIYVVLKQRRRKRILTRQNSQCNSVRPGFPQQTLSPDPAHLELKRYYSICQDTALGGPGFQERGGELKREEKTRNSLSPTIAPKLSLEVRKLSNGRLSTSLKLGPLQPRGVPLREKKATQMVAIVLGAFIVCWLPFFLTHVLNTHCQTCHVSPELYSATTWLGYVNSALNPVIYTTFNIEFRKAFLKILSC
Description: [3H]spiperone displacement, CHO-K1 membranes on human D3R

Ki (human D2sR (D2shortR)): 0.759 µM | Ki (human D3R): 14.5 µM
SMILES: N=C(N)N(CCCCN1CCN(CCCCN(Cc2ccc(C(F)(F)F)cc2)C(=N)N)CC1)Cc1ccc(C(F)(F)F)cc1 [compound 30]
